Assay results published in patent publication US9238131B2, “Ocular iontophoresis device” (priority 2005, dated 2016).

Settings: rabbit, 40 mg/ml in water with no buffer, 2 mA-4 min
Description: The assignee made some comparative tests on rabbits done with a first iontophoresis device having cylindrical outer and inner walls (as known in the prior art) and a second iontophoresis device as shown in FIG. 7 (i.e. the inner wall 26 and outer wall 24 being tapered with the same inclination angle).
The two devices were designed for having the same: • application surface 2; • distance between the active electrode 10 and the application surface 2.
The area of the active electrode 30 of the second device was about three times more important than those of the first device.
For each comparative test, iontophoresis conditions were the same (2 mA-4 min).
After iontophoresis, rabbit ocular tissues were sampled. Tissues sampled included choroids and retina.
Concentrations of active substances 30 in these ocular tissues were then measured.

For `C[C@@H]1C[C@H]2[C@@H]3CCC4=CC(=O)C=C[C@]4(C)[C@@]3(F)[C@@H](O)C[C@]2(C)[C@@]1(O)C(=O)COP(=O)([O-])[O-].[Na+].[Na+]` [Dexamethasone Disodium Phosphate], the “Increase of tissue concentration, second device versus first device, choroids” value was 3.7 and the “Times more active substance in the tissues with second (tapered) device than with first (cylindrical) device” value (choroids and retina) was “At least three”.
